Publication PMC6434714 (Journal of natural products, 2018)
≈ marks a conversion by molar mass, not a printed value.

Tests used:
[1] = molecular target: A. aeolicus MraY (AaMraY) (Aquifex aeolicus, UniProt O66465); test: Fluorescence-based in vitro MraY assay, A. aeolicus MraY; type: biochemical
[2] = system: S. aureus subsp. aureus (Newman strain); test: Antimicrobial activity; details: for activity against S. aureus (in words): growth inhibition
Staphylococcal = details: cited from earlier work
E. coli imp mutant = details: cited from earlier work
S. aureus = details: cited from earlier work

A. aeolicus MraY (AaMraY), sequence (O66465 whole entry): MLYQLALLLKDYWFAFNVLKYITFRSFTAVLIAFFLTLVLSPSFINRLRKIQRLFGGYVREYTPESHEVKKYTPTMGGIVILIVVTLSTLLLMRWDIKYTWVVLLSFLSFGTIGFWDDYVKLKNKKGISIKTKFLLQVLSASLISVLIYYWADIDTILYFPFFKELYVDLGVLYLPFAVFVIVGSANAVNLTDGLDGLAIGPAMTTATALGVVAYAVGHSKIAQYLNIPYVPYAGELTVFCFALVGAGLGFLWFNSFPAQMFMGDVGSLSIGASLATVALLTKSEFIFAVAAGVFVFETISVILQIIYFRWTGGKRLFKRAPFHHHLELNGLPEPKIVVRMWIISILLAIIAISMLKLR

CO[C@H]1[C@H](O[C@H]([C@H]2O[C@@H](n3ccc(=O)[nH]c3=O)[C@H](O)[C@@H]2O)[C@H](NCCCNC(=O)[C@@H](NC(=O)[C@@H](NC(=O)N[C@H](C(=O)O)C(C)C)[C@@H]2CCNC(=N)N2)[C@@H](OC(=O)CCCCCCCCCCCCC(C)C)C(C)C)C(=O)O)O[C@H](CN)[C@H]1O [Compound 1, muraymycin B8]
IC50 [1]: 0.068 nM | MIC ([2]; Staphylococcus aureus, NEWMAN, 16 h, read-out: S. aureus growth inhibition MIC, Newman strain, 37 °C, 16 h): 2 to 6 µg/mL (≈ 1.69 to 5.07 µM)

CO[C@H]1[C@H](O[C@H]([C@H]2O[C@@H](n3ccc(=O)[nH]c3=O)[C@H](O)[C@@H]2O)[C@H](NCCCNC(=O)[C@@H](NC(=O)[C@@H](NC(=O)N[C@H](C(=O)O)C(C)C)[C@@H]2CCNC(=N)N2)[C@@H](OC(=O)CCCCCCCCCCC(C)C)C(C)C)C(=O)O)O[C@H](CN)[C@H]1O [Compound 2, muraymycin B9]
S. aureus growth inhibition MIC ([2]; Newman strain, 37 °C, 16 h): 2 to 6 µg/mL

CO[C@H]1[C@H](O[C@H]([C@H]2O[C@@H](n3ccc(=O)[nH]c3=O)[C@H](O)[C@@H]2O)[C@H](NCCCNC(=O)[C@@H](NC(=O)[C@@H](NC(=O)N[C@H](C(=O)O)C(C)C)[C@@H]2CCNC(=N)N2)[C@@H](O)C(C)C)C(=O)O)O[C@H](CNC(C)=O)[C@H]1O [Compound 3, 16-N-acetyl-muraymycin C1]
activity against S. aureus (in words) [2]: inactive

CO[C@H]1[C@H](O[C@H]([C@H]2O[C@@H](n3ccc(=O)[nH]c3=O)[C@H](O)[C@@H]2O)[C@H](NCCCNC(=O)[C@@H](NC(=O)[C@@H](NC(=O)N[C@H](C(=O)O)C(C)C)[C@@H]2CCNC(=N)N2)[C@@H](OC(=O)CCCCCCCCCCCCN(O)C(=N)N)C(C)C)C(=O)O)O[C@H](CN)[C@H]1O [Muraymycin A1]
MIC against Staphylococcal (Staphylococcal): 2 to 16 µg/mL | MIC against E. coli imp mutant (E. coli imp mutant): < 0.03 µg/mL

CO[C@H]1[C@H](O[C@H]([C@H]2O[C@@H](n3ccc(=O)[nH]c3=O)[C@H](O)[C@@H]2O)[C@H](NCCCNC(=O)[C@@H](NC(=O)[C@@H](NC(=O)N[C@H](C(=O)O)C(C)C)[C@@H]2CCN=C(N)N2)[C@@H](OC(=O)CCCCCCC(C)C)C(C)C)C(=O)O)O[C@H](CN)[C@H]1O [muraymycin B2]
MIC against S. aureus (S. aureus): > 32 µg/mL

CO[C@H]1[C@H](O[C@H]([C@H]2O[C@@H](n3ccc(=O)[nH]c3=O)[C@H](O)[C@@H]2O)[C@H](NCCCNC(=O)[C@@H](NC(=O)[C@@H](NC(=O)N[C@H](C(=O)O)C(C)C)[C@@H]2CCN=C(N)N2)[C@@H](OC(=O)CCCCC(C)C)C(C)C)C(=O)O)O[C@H](CN)[C@H]1O [muraymycin B6]
MIC against S. aureus (S. aureus): > 32 µg/mL

CO[C@H]1[C@H](O[C@H]([C@H]2O[C@@H](n3ccc(=O)[nH]c3=O)[C@H](O)[C@@H]2O)[C@H](NCCCNC(=O)[C@@H](NC(=O)[C@@H](NC(=O)N[C@H](C(=O)O)C(C)C)[C@@H]2CCNC(=N)N2)[C@@H](O)C(C)C)C(=O)O)O[C@H](CN)[C@H]1O [muraymycin C1]
activity against S. aureus (in words) [2]: inactive
